From US11136613B2, “Antibacterial polypeptide libraries and methods for screening the same” (priority 2015, dated 2021)

What was measured:
Format in all cases: cell-based
[1] = tested on: wild type E. coli strain W3110; conditions: for cell lysis measured by decrease in culture optical density after IPTG induction: surface displayed peptide, E. coli W3110, IPTG added
E. coli strain WD101 = conditions: surface displayed peptide, 2× tether, 0.1 mM IPTG
A. baumannii = assay: Surface expression of 2× tether+cecropin P1 or HA in A. baumannii; conditions: 2× tether surface expression
From the text: FIG. 3: Surface expression of 2× tether+cecropin P1 or HA in A. baumannii. Addition of IPTG leads to rapid lysis of cecropin P1 containing A. baumannii.
The platform uses a plasmid with a broad host range origin of replication offering flexibility to identify antimicrobial peptides in many gram-negative bacteria. For example, A. baumannii is a gram-negative, hospital-associated pathogen that quickly acquires antibiotic resistance. […] The selective marker on this plasmid can be changed to allow its use in bacteria with different antibiotic resistant profiles.

E. coli = assay: Co-culture of 2× tether+cecropin P1 expressing E. coli and empty vector E. coli, CFU plating and plasmid qPCR; conditions: 3 hours

Row | Substance | cell lysis measured by decrease in culture optical density after IPTG induction [1] | efficiency of cell lysis depending on tether ([1]; two (2×) tandem low-complexity-region protein tethers, versus 0 and 1× tether, 0.1 mM IPTG) | cell lysis in resistant strain WD101 compared with parental strain W3110 (E. coli strain WD101) | lysis of A. baumannii after addition of IPTG (A. baumannii) | difference in recoverable colony forming units between peptide expressing and control bacteria (E. coli; co-culture in equal ratio, 0.1 mM IPTG) | decrease of ratio of peptide encoding plasmid to empty vector (qPCR) (E. coli; co-culture, 0.1 mM IPTG induction)
1 | Dermaseptin | same impact on cell growth |  |  |  |  | 
2 | cecropin P1 (SWLSKTAKKLENSAKKRISEGIAIAIQGGPR; Cecropin-P1; UniProt P14661 14-44, looked up) [known antimicrobial peptide that lyses many gram-negative bacteria through disruption of the outer membrane; positive control] | begin to lyse | most efficient lysis | less cell lysis | rapid lysis | 2-3 log | ~50 fold
